Where two headings read alike, the source gives them in different places.
Tests used:
cattle = test: In vivo rumen ORP in cattle with ORP measurement bolus
Protocol: Experimental: An in vivo study was conducted to investigate the effect of feed additives of the invention on rumen ORP in cattle. The study involved administering an ORP measurement bolus to each cow to allow for an ORP reading to be recorded every 10 minutes, dividing the cattle into three groups: a control group (receiving feed without any feed additive of the invention), low dose (receiving 100 g CaO2 per day along with feed—with the additive being delivered at a single morning feeding) and a high dose group (receiving 200 g CaO2 per day along with feed—with the additive being delivered at a single morning feeding). The rumen was opened after approximately 450 hours.
The results of this study are given in FIG. 20 which charts the ORP level in the rumen (mV) over time measured at 10-minute intervals for the control group, the low-dose group, and the high-dose group respectively.
An average baseline ORP reading measured for the animals from the control group is about −440 mV. This average baseline ORP reading of about −440 mV may be useful to aid comparison between control ORP and increases in ORP due to the animals consuming the additive. After approximately 450 hours the rumen was opened and the ORP results after this time point should be disregarded.

[1] = for Average Weight Gain: day 1 to day 49; for Average Daily DMI: group average; for Gain:Feed Ratio: group basis; for Average Finishing Weight / Average Starting Weight: group of 20 sheep
Protocol: Experimental: A study was conducted to determine what impact consumption of the feed additives would have on animal performance. It is estimated that between 2-12% of the energy content of animal feed is lost through enteric fermentation. This study examined whether though potential reductions in enteric fermentation additional energy would be diverted to the animal, with this being seen via an improved feed:gain metric, that is the ability of the animal to improve the rate of increase in its body weight per unit of feed eaten. 60 adult ewes (average starting body weight of approximately 80 kg) were divided into 3 equal groups of 20 sheep per group. Animals were fed as described in the Animal Study—Methane Emissions above. Animals were grouped into a control group (no feed additive given); treatment group 1 (2.355 g Urea-Hydrogen Peroxide given daily); treatment group 2 (4.71 g Urea-Hydrogen Peroxide given daily).
Animals were weighed at the start of the experiment (day 1) and at the end of the study (day 49). All feed (DMI) consumed was weighed and recorded throughout the study.
A feed:gain ratio was calculated as follows: […]
The ratio of weight gain to DMI was then calculated to determine the feed efficiency of each animal.

adult ewes = system: adult ewes
Protocol: A methane emission study was carried out to determine the impact of feeding different doses of the feed additive would have on enteric fermentation. […] Any refused concentrate/additive was recorded. Sheep then had ad libitum access to grass silage and water throughout the day, with the amount of silage eaten recorded for each animal.
Body weights of all animals were recorded at the start of the experiment (‘week 1’) and after 49 days (‘week 7’).
Methane emissions were recorded through use of Portable Accumulation Chambers (PAC). Briefly: these are sealed chambers in which individual animals remain for a 1 hour time period. During this time period methane, oxygen and carbon dioxide measurements are taken at 0 minutes, 25 minutes and 50 minutes. […] Animals were placed in the PAC on week 1 and […] as defined above. 12 adult ewes, at least 2 years old, were divided into 2 groupings of 6 sheep. One group received a 2.355 g dose of Urea-Hydrogen Peroxide (termed Group 1) per day and the other received a 4.71 g dose of Urea-Hydrogen Peroxide (termed Group 2) per day.
Control Group: Sheep were fed 0.5 kg of feed concentrate comprising animal feed, on a daily basis over a 7 week period.
Treatment Group 1 (UHP 0.5X): Sheep were fed 0.5 kg of feed concentrate comprising the same animal feed as the control group and 0.15% (by weight) of urea hydrogen peroxide, on a daily basis over a 7 week period.
Treatment Group 2 (UHP 1X): Sheep were fed 0.5 kg of feed concentrate comprising the same animal feed as the control group and 0.3% (by weight) of urea hydrogen peroxide, on a daily basis over a 7 week period.

[2] = Treatment Group 1, 2.355 g UHP per day
[3] = Treatment Group 1, 2.355 g UHP per day, Week 1
[4] = Treatment Group 1, 2.355 g UHP per day, Week 7
[5] = Treatment Group 2, 4.71 g UHP per day
[6] = Treatment Group 2, 4.71 g UHP per day, Week 1
[7] = Treatment Group 2, 4.71 g UHP per day, Week 7

With [Ca+2].[O-][O-] [CaO2, calcium peroxide] the “increase of ORP in the rumen after each morning feed” value (cattle; 100 g or 200 g CaO2 per day with feed, sustained period of at least one hour) was “at least +100 mV” and the “initial period (correction phase) of the ORP profile” value (cattle; 100 g or 200 g CaO2 per day, temporary reductions below baseline between administrations) was 300 to 350 h.
In the case of NC(N)=O.OO [urea hydrogen peroxide], the “Average Weight Gain” value ([1]; Treatment 1, 2.355 g UHP daily) is reported as 5.65 kg, the “Average Daily DMI” value ([1]; Treatment 1, 2.355 g UHP daily) is reported as 1.6345 kg and the “Gain:Feed Ratio” value ([1]; Treatment 1, 2.355 g UHP daily) is reported as 0.0864. The “Average Finishing Weight” value ([1]; Treatment 1, 2.355 g UHP daily) was 82.55 kg, the “Average Starting Weight” value ([1]; Treatment 1, 2.355 g UHP daily) was 76.9 kg and the “Average Weight Gain” value ([1]; Treatment 2, 4.71 g UHP daily) was 6.325 kg. The “Average Daily DMI” value ([1]; Treatment 2, 4.71 g UHP daily) was 1.516 kg, the “Gain:Feed Ratio” value ([1]; Treatment 2, 4.71 g UHP daily) was 0.1043 and the “Average Finishing Weight” value ([1]; Treatment 2, 4.71 g UHP daily) was 81.275 kg. The “Average Starting Weight” value ([1]; Treatment 2, 4.71 g UHP daily) was 74.95 kg, the “weight gain versus control group” value ([1]; treatment groups) was “gained more weight on average than the control group” and the “CH4/BW Difference week 7 versus week 1” value (adult ewes; [2]) was 11.24%. The “CH4/day Difference week 7 versus week 1” value (adult ewes; [2]) was 5.828%, the “CH4/BW (group mean)” value (adult ewes; [3]) was 0.3705 litres of methane per kg of animal body weight and the “CH4/day (group mean)” value (adult ewes; [3]) was 29.32. The “CH4/BW (group mean)” value (adult ewes; [4]) was 0.3288 litres of methane per kg of animal body weight, the “CH4/day (group mean)” value (adult ewes; [4]) was 27.61 and the “CH4/BW Difference week 7 versus week 1” value (adult ewes; [5]) was 22.61%. The “CH4/day Difference week 7 versus week 1” value (adult ewes; [5]) was 18.04%, the “CH4/BW (group mean)” value (adult ewes; [6]) was 0.3753 litres of methane per kg of animal body weight and the “CH4/day (group mean)” value (adult ewes; [6]) was 29.82. The “CH4/BW (group mean)” value (adult ewes; [7]) was 0.2905 litres of methane per kg of animal body weight, the “CH4/day (group mean)” value (adult ewes; [7]) was 24.44 and the “methane production by week 7” value (adult ewes; treatment groups, feed concentrate comprising urea hydrogen peroxide) was “significant decrease in methane production”.
